Test results from patent US11622937B2, “Polyphenolic polymer to make water-insoluble molecules become water-soluble” (priority 2015, dated 2023).
Counter-ions that a name gives are not always drawn.

Assay: not given
Conditions: cited from earlier work

Compound	Reported Solubility in water
C[C@@H]1CC[C@H]2[C@@H](C)C(=O)O[C@@H]3O[C@@]4(C)CC[C@@H]1[C@]32OO4 [Artemisinin]	Insoluble
COc1ccc(CCN2CCC(Nc3nc4ccccc4n3Cc3ccc(F)cc3)CC2)cc1 [Astemizole]	Insoluble
NC(N)=Nc1nc(CSCCC(N)=NS(N)(=O)=O)cs1 [Famotidine]	Insoluble
O=C1CCc2cc(OCCCCc3nnnn3C3CCCCC3)ccc2N1 [Cilostazol]	Insoluble
CCc1nc(N)nc(N)c1-c1ccc(Cl)cc1 [Pyrimethamine]	Insoluble
CC[C@H](C)C(=O)O[C@H]1C[C@H](O)C=C2C=C[C@H](C)[C@H](CC[C@@H](O)C[C@@H](O)CC(=O)O)[C@H]21 [Pravastatin Sodium]	Insoluble
COc1cccc2c1C(=O)c1c(O)c3c(c(O)c1C2=O)C[C@@](O)(C(C)=O)C[C@@H]3O[C@H]1C[C@H](N)[C@H](O)[C@H](C)O1 [Daunorubicin hydrochloride]	Insoluble
COCCOC(=O)C1=C(C)NC(C)=C(C(=O)OC(C)C)C1c1cccc([N+](=O)[O-])c1 (centres unmarked) [Nimodipine]	Insoluble
COc1cc([C@@H]2c3cc4c(cc3[C@@H](O[C@@H]3O[C@@H]5CO[C@@H](C)O[C@H]5[C@H](O)[C@H]3O)[C@H]3COC(=O)[C@H]23)OCO4)cc(OC)c1O [Etoposide]	Insoluble
Cc1cc2c(s1)Nc1ccccc1N=C2N1CCN(C)CC1 [Olanzapine]	Insoluble
CN(C)CCC[C@@]1(c2ccc(F)cc2)OCc2cc(C#N)ccc21 [Escitalopram]	Insoluble
CC(=O)Nc1ccc(O)cc1 [Paracetamol]	Insoluble
CC[C@H](C)C(=O)O[C@H]1CCC=C2C=C[C@H](C)[C@H](CC[C@@H]3C[C@@H](O)CC(=O)O3)[C@H]21 [Mevastatin]	Insoluble
Nc1ncn([C@@H]2O[C@H](CO)[C@@H](O)[C@H]2O)c(=O)n1 [Azacitidine (Vidaza), Azacitidine]	Insoluble
CCn1cc(C(=O)O)c(=O)c2cc(F)c(N3CCNCC3)cc21 [Norfloxacin(antibiotic), Norfloxacin]	Insoluble
CC(C)(C)NC(=O)[C@H]1CC[C@H]2[C@@H]3CC[C@H]4NC(=O)C=C[C@]4(C)[C@H]3CC[C@]12C [Finasteride]	Insoluble
CS(=O)(=O)OCCCCOS(C)(=O)=O [Busulphan]	Insoluble
O=C1CCc2ccc(OCCCCN3CCN(c4cccc(Cl)c4Cl)CC3)cc2N1 [Aripiprazole, 99%, Aripiprazole]	Insoluble

Compound	Reported Solubility in water
C[C@@H](O[C@H]1OCCN(Cc2n[nH]c(=O)[nH]2)[C@H]1c1ccc(F)cc1)c1cc(C(F)(F)F)cc(C(F)(F)F)c1 [Aprepitant]	Insoluble
C[C@]12C=CC(=O)C=C1CC[C@@H]1[C@@H]2C(=O)C[C@@]2(C)[C@H]1CC[C@]2(O)C(=O)CO [Prednisone]	Insoluble
Oc1ccc(C=Cc2cc(O)cc(O)c2)cc1 [Resveratrol]	Insoluble
CC(=O)O[C@H]1C(=O)[C@@]2(C)[C@H]([C@H](OC(=O)c3ccccc3)[C@]3(O)C[C@H](OC(=O)[C@H](O)[C@@H](NC(=O)c4ccccc4)c4ccccc4)C(C)=C1C3(C)C)[C@]1(OC(C)=O)CO[C@@H]1C[C@@H]2O [Paclitaxel from Taxus Brevifolia, Paclitaxel]	Insoluble
Cn1cnc([N+](=O)[O-])c1Sc1ncnc2nc[nH]c12 [Azathioprine]	Insoluble
COc1ccc2c(c1)c(CC(=O)OCC(=O)O)c(C)n2C(=O)c1ccc(Cl)cc1 [Acemetacin]	Insoluble
O=C(O)Cc1ccccc1Nc1c(Cl)cccc1Cl [Diclofenac(pain), Diclofenac]	Insoluble
COC1=CC(=O)C[C@@H](C)[C@]12Oc1c(Cl)c(OC)cc(OC)c1C2=O [Griseofulvin]	Insoluble
CO/N=C(\C(=O)N[C@@H]1C(=O)N2C(C(=O)O)=C(COC(C)=O)CS[C@H]12)c1csc(N)n1 [Cefotaxime]	Insoluble
COC(=O)[C@H](c1ccccc1Cl)N1CCc2sccc2C1 [Clopidogrel Sulfate]	Insoluble
C=CC(=O)N1CCC[C@@H](n2nc(-c3ccc(Oc4ccccc4)cc3)c3c(N)ncnc32)C1 [PCI-32765]	Insoluble
CC1(C)S[C@@H]2[C@H](NC(=O)C(C(=O)O)c3ccccc3)C(=O)N2[C@H]1C(=O)O (some centres unmarked) [Carbenicillin disodium]	Insoluble
COc1ccc2c(c1)c(CC(=O)O)c(C)n2C(=O)c1ccc(Cl)cc1 [Indomethacin]	Insoluble
CCc1cccc2c3c([nH]c12)C(CC)(CC(=O)O)OCC3 (centres unmarked) [Etodolac]	Insoluble
Nc1nnc(-c2cccc(Cl)c2Cl)c(N)n1 [6-(2,3-Dichlorophenyl)-1,2,4-triazine-3,5-diamine]	Insoluble
COc1ccccc1OCCNCC(O)COc1cccc2[nH]c3ccccc3c12 (centres unmarked) [Carvedilol]	Insoluble
O=c1[nH]c2ccccc2n1CCCN1CCC(n2c(=O)[nH]c3cc(Cl)ccc32)CC1 [Domperidone]	Insoluble

Assay: Solubility with Polyphenolic Polymer in water
Conditions: molecule formulated with Polyphenolic Polymer

Compound	Solubility with Polyphenolic Polymer in water (more than 99%)
O=C1CCc2cc(OCCCCc3nnnn3C3CCCCC3)ccc2N1 [Cilostazol]	Water Soluble
CCc1nc(N)nc(N)c1-c1ccc(Cl)cc1 [Pyrimethamine]	Water Soluble
CC[C@H](C)C(=O)O[C@H]1C[C@H](O)C=C2C=C[C@H](C)[C@H](CC[C@@H](O)C[C@@H](O)CC(=O)O)[C@H]21 [Pravastatin Sodium]	Water Soluble
Pyrethrin	Water Soluble
Ivermectin	Water Soluble
C/C(=C\c1csc(C)n1)[C@@H]1C[C@@H]2O[C@@H]2CCC[C@H](C)[C@H](O)[C@@H](C)C(=O)C(C)(C)[C@@H](O)CC(=O)O1 [Epothilone A]	Water Soluble
N[C@@H](Cc1ccc(N(CCCl)CCCl)cc1)C(=O)O [Melphalan(cancer), Melphalan]	Water Soluble
C[C@@H]1[C@H](O)[C@@H](C)/C=C/C=C/CC/C=C/C=C/C=C/C=C/C(O[C@H]2O[C@H](C)[C@@H](O)[C@H](N)[C@@H]2O)CC2O[C@](O)(CC(O)C(O)CCC(O)CC(O)CC(O)CC(=O)O[C@H]1C)CC(O)C2C(=O)O (some centres unmarked) [Nystatin mycostatin]	Water Soluble
CC[C@H](CC[C@@H](C)[C@H]1CC[C@H]2[C@@H]3CC=C4C[C@@H](O)CC[C@]4(C)[C@H]3CC[C@]12C)C(C)C [Beta-sitosterol]	Water Soluble
